Measurements published in PMC8287724, “Reducing Auditory Nerve Excitability by Acute Antagonism of Ca^2+-Permeable AMPA Receptors” (Frontiers in Synaptic Neuroscience, 2021).
Where “and” joins values, the source holds several entries; their conditions need not be identical. Identical values can stand only once.

Columns and labels:
[1] = test system: auditory nerve compound action potential (CAP); test: Auditory nerve CAP during intracochlear (apical) perfusion; assay type: in vivo, guinea pig
Description: (§1) This study utilized 21 NIH-strain, pigmented guinea pigs weighing from 400 to 650 g, in accordance with policies and protocols approved by the Institutional Animal Care and Use Committee at Washington University in St. Louis (20180133, 20190035). Animals were anesthetized with intraperitoneal (IP) injection of 100 mg/kg sodium thiobutabarbital (Inactin, Sigma, St. Louis, MO). Once anesthetized, the fur from the head and neck was shaved and a tracheal cannula was placed. The animal was maintained on 0.8–1.2% isoflurane in oxygen using a mechanical ventilator. The ventilator's tidal volume was adjusted to maintain a 5% end-tidal CO2 which was monitored with a CapnoTrue AMP (Bluepoint Medical, Zevenaar, The Netherlands). Body temperature was maintained at 38 degrees C with a DC-powered heating blanket-rectal thermometer (Model 50-7079; Harvard Apparatus). Heart rate and oxygen saturation were monitored with a pulse oximeter (Surgivet, Waukesha, WI). The auditory bulla was exposed ventrally for placement of recording electrodes. The jugular vein was cannulated to maintain hydration with 0.5 mL per hour of Lactated Ringer's solution. To prevent middle ear muscle contractions, vecuronium bromide (0.2 mg/kg) was administered immediately prior to data collection and every 1.5 h thereafter.
The head was stabilized in a head-holder with a solid ear bar on the left side and hollow ear bar on the right side, a bite bar, and a snout clamp. Sound calibration, stimulus generation, and recording methods have been detailed previously (Lichtenhan et al., [2016a], [2017]). Briefly, cochlear function measurements were made using MATLAB software (The MathWorks, Natick, MA) and the software utility Playrec. The stimulus was first generated in MATLAB, digitized at 96 kHz, presented to a 24-bit sound card (RME: Fireface802; Sweetwater, Fort Wayne, IN), and then routed to an acoustic probe system (ER-10X; Etymotic Research, Fort Wayne, IN). The ER-10X microphone was calibrated using a reference microphone (1/8” GRAS type 40P) and a custom-made coupling system was used for setting stimulus levels. Sound was presented through the hollow ear bar on the right side via the ER-10X microphone probe.
Cochlear output was recorded as a field potential between a Ag/AgCl ball electrode in the cochlear round window niche and a platinum needle electrode at the vertex of the cranium. Responses to 20 tone bursts (10 with reversed polarity) were averaged for each CAP measurement at a given frequency and level. The CAP audiogram was measured (1–22 kHz, 1/4 octave steps) at the beginning and end of the experiment to determine CAP threshold as a function of tone-burst frequency. Prior to and immediately after IEM-1460 perfusions via the apical cochlear fenestration (see below), CAPs were evoked by tone bursts at selected frequencies and levels. Measurements were repeated at 1- to 2-min intervals to monitor cochlear output and to ensure response stationarity for at least 25 min prior to drug delivery. Data with baseline changes >20% were excluded. The round window niche was monitored for accumulation of fluid.
At each probe frequency, CAP peak-to-peak amplitudes were measured from the first trough (N1) to the first peak (P1). Latencies were measured to the trough of N1. Cochlear output was compared before and after intraperitoneal drug delivery. The data were tested for normality using a Kolmogorov-Smirnov test. For CAP amplitude and latency, significance was assessed with the Mann-Whitney U-test. The Wilcoxon signed rank test was used to assess CAP threshold. Friedman test was used to compare concentrations of drug between perilymph and CSF. A p < 0.05 was considered statistically significant. A Bonferroni correction was used when performing multiple comparison testing. All statistical tests were performed with IBM SPSS Statistics Version 27 (SPSS Inc., Chicago, IL, United States). […]

[2] = test system: GluA2-containing AMPARs; design: method as in Magazanik et al., 1997; Buldakova et al., 1999; conditions: ref Magazanik et al., 1997; Buldakova et al., 1999; cited from earlier work
[3] = test system: cochlear afferent synapses; design: method as in Hu et al., 2020; conditions: mouse; ~2.5 days of sustained intracochlear delivery; synaptopathic noise ref Hu et al., 2020; cited from earlier work
[4] = test system: GluA2-lacking AMPARs; design: method as in Magazanik et al., 1997; Buldakova et al., 1999; conditions: ref Magazanik et al., 1997; Buldakova et al., 1999; read-out: IC50 on cells expressing GluA2-lacking AMPARs; cited from earlier work
[5] = Heart rate and blood oxygenation monitoring during systemic dosing; assay type: in vivo, guinea pig; conditions: IP injection: IEM-1460 13.5 mg/kg, IEM-1925 8 mg/kg; N = 4
Description: as §1, with “To prevent middle ear muscle contractions, vecuronium bromide (0.2 mg/kg) was administered immediately prior to data collection and every 1.5 h thereafter.” left out
Systemic delivery of IEM-1925 (8 mg/kg, IP) reduced CAP amplitude to a similar extent as IEM-1460 (13.5 mg/kg, IP). […] Blood oxygenation and heart rate were monitored along with cochlear physiology during the time course of the experiment. […]

[6] = 100 μM, across tone levels and frequencies

SMILES: C[N+](C)(C)CCCCCNCC12CC3CC(CC(C3)C1)C2 [IEM-1460]
- reduction of tone-evoked CAP amplitude ([1]; 10 μM in perfusion): ~ 25%
- reduction of CAP amplitude ([1]; 100 μM in perfusion pipette, 80 dB SPL tones at 2 and 16 kHz, average): ~ 55%
- reduction of CAP amplitude relative to pre-drug baseline ([1]; 100 μM, 2 kHz tones): ~ 60%
- reduction of CAP amplitude relative to pre-drug baseline ([1]; 100 μM, 16 kHz tones): ~ 30%
- additional CAP delay [1, 6]: ~ 0.3 ms
- increase of CAP latency relative to pre-drug [1, 6]: ~ 10% and 10%
- change in CAP threshold ([1]; 100 μM, frequencies from 1 to 20 kHz): < 5 dB SPL
- IC50 ([1]; Cavia porcellus, intracochlear perfusion 0.1 to 4,000 μM, 80 dB SPL probe, averaged for 2 and 16 kHz tones, Boltzmann fit, read-out: IC50, concentration for a 50% CAP reduction): ~73 µM
- reduction of CAP amplitude ([1]; acute intracochlear delivery, all tone levels and frequencies (abstract, concentration not stated)): > 50%
- IC50 [2]: 500 to 1100 µM
- effect on noise-induced synapse loss and ABR wave-I amplitude [3]: prevented synapse loss and loss of wave-I amplitude
- IC50 [4]: 1000 to 3000 nM

SMILES: NCCCCCNC1(c2ccccc2)CCCCC1 [IEM-1925]
- temporary reduction in heart rate [5]: No such reduction
